pKi: −log10 of the molar value.

What is called pKi is the negative decadic logarithm of the Ki, by convention in mol/L. Low readings indicate a high Ki, high ones a low Ki.

In this test the target is human FLAP (Homo sapiens (Human), UniProt P20292). In words: FLAP binding assay (HTRF format). Conditions: human FLAP wild type membranes, HTRF format; Table 6 (additional runs). Here is the method: The ability of the compounds of the present invention to treat a FLAP-mediated disease and/or disorder, or associated symptoms or complications thereof, was determined using the following procedures. Binding assay data represent the average value obtained from two different assay plates, with samples run in duplicate on each plate. Human whole blood assay data represent a single replicate on an assay plate using whole blood from at least one healthy donor.
Data are expressed as a HTRF ratio.
In general terms: Time-resolved FRET reads energy transfer from a long-lived donor to a nearby acceptor.

Chain of human FLAP (P20292 whole entry): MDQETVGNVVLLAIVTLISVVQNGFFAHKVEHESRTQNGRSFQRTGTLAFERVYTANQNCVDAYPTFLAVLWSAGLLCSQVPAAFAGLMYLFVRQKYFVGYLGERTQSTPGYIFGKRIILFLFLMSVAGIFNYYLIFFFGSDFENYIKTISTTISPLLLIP

The compound `Nc1cnc(-c2ccc(C3CCC3)c(OCC3CCCNC3)c2F)cn1` (racemic) [Example 299, racemic 5-[4-Cyclobutyl-2-fluoro-3-(piperidin-3-ylmethoxy)phenyl]pyrazin-2-amine] showed a pKi of 5.71.

Consider `COc1c(C2CCC2)ccc(-c2cnc(N)cn2)c1F` [A, 5-(4-Cyclobutyl-2-fluoro-3-methoxyphenyl)pyrazin-2-amine], for which the negative-log Ki (pKi) was 7.28.

Compound `Nc1cnc(-c2ccc(C3CCC3)c(O)c2F)cn1` [B, 3-(5-Aminopyrazin-2-yl)-6-cyclobutyl-2-fluorophenol] gave a pKi of 7.08.

On to `Nc1cnc(-c2ccc(C3CCC3)c(OCc3ccc(C(F)(F)F)cc3)c2F)cn1` [Compound 1, 5-(4-Cyclobutyl-2-fluoro-3-{[4-(trifluoromethyl)benzyl]oxy}phenyl)pyrazin-2-amine], for which the pKi was 7.20. This pKi and that of the compound before are within 0.2 log units of each other.

Consider `Nc1cnc(-c2ccc(C3CCC3)c(OCc3ccccc3C(F)(F)F)c2F)cn1` [Compound 3, 5-(4-Cyclobutyl-2-fluoro-3-{[2-(trifluoromethyl)benzyl]oxy}phenyl)pyrazin-2-amine], for which the pKi was 6.93.

`Nc1cnc(-c2ccc(C3CCC3)c(OCc3cccc(C(=O)O)c3)c2F)cn1` [Compound 4, 3-{[3-(5-Aminopyrazin-2-yl)-6-cyclobutyl-2-fluorophenoxy]methyl}benzoic acid] gave a pKi of 8.24.

Turning to `Nc1cnc(-c2ccc(C3CCC3)c(OCc3ccc(C(=O)O)cc3)c2F)cn1` [Compound 5, 4-{[3-(5-Aminopyrazin-2-yl)-6-cyclobutyl-2-fluorophenoxy]methyl}benzoic acid], the pKi is 7.99.

`CS(=O)(=O)c1cccc(COc2c(C3CCC3)ccc(-c3cnc(N)cn3)c2F)c1` [Compound 6, 5-(4-Cyclobutyl-2-fluoro-3-{[3-(methylsulfonyl)benzyl]oxy}phenyl)pyrazin-2-amine] gave a negative logarithm of the Ki (pKi) of 7.87.

In the case of `CS(=O)(=O)c1ccc(COc2c(C3CCC3)ccc(-c3cnc(N)cn3)c2F)cc1` [Compound 7, 5-(4-Cyclobutyl-2-fluoro-3-{[4-(methylsulfonyl)benzyl]oxy}phenyl)pyrazin-2-amine], the pKi is 8.13. Against the preceding compound, the pKi is 0.26 log units higher.

Consider `CC(=O)c1ccc(COc2c(C3CCC3)ccc(-c3cnc(N)cn3)c2F)cc1` [Compound 12, 1-(4-{[3-(5-Aminopyrazin-2-yl)-6-cyclobutyl-2-fluorophenoxy]methyl}phenyl)ethanone], for which the pKi was around 7.05.

Regarding `Nc1cnc(-c2ccc(C3CCC3)c(OCc3cccnc3)c2F)cn1` [Compound 13, 5-[4-Cyclobutyl-2-fluoro-3-(pyridin-3-ylmethoxy)phenyl]pyrazin-2-amine], the pKi is 7.57.

The compound `Nc1cnc(-c2ccc(C3CCC3)c(OCc3ccncc3)c2F)cn1` [Compound 14, 5-[4-Cyclobutyl-2-fluoro-3-(pyridin-4-ylmethoxy)phenyl]pyrazin-2-amine] gave a pKi of 7.65.

The compound `N#Cc1cccc(COc2c(C3CCC3)ccc(-c3cnc(N)cn3)c2F)c1` [Compound 16, 3-{[3-(5-Aminopyrazin-2-yl)-6-cyclobutyl-2-fluorophenoxy]methyl}benzonitrile] had a pKi of 7.70.

`NC(=O)c1cccc(COc2c(C3CCC3)ccc(-c3cnc(N)cn3)c2F)c1` [Compound 17, 3-{[3-(5-Aminopyrazin-2-yl)-6-cyclobutyl-2-fluorophenoxy]methyl}benzamide] showed a pKi of 7.90.

As to `N#Cc1ccccc1COc1c(C2CCC2)ccc(-c2cnc(N)cn2)c1F` [Compound 18, 2-{[3-(5-Aminopyrazin-2-yl)-6-cyclobutyl-2-fluorophenoxy]methyl}benzonitrile], the negative-log Ki (pKi) was 7.23.

In the case of `NC(=O)c1ccccc1COc1c(C2CCC2)ccc(-c2cnc(N)cn2)c1F` [Compound 19, 2-{[3-(5-Aminopyrazin-2-yl)-6-cyclobutyl-2-fluorophenoxy]methyl}benzamide], the negative logarithm of the Ki (pKi) is 8.42. This pKi is 1.19 log units higher than that of the compound before.

Consider `Nc1cnc(-c2ccc(C3CCC3)c(OCc3ccc(CC(=O)O)cc3)c2F)cn1` [Compound 23, (4-{[3-(5-Aminopyrazin-2-yl)-6-cyclobutyl-2-fluorophenoxy]methyl}phenyl)acetic acid], for which the pKi is 8.43.

Source of the values: patent US9732093B2, “FLAP modulators” (JANSSEN PHARMACEUTICA NV, priority 2013, dated 2017).
